This series in a line: Qualitative solubility in water and organic solvents. The settings on record: for solubility in methanol: compared to octadecadiynyl analogues 12 and 3; for solubility in organic solvents: organic solvents like CHCl3, CH2Cl2 (and DMF). It is filed as physicochemical. An excerpt:
Thus self-aggregation behavior of 3 has not been investigated. To increase the polar character and to improve the water-solubility of such a bis-biotinated derivative, the [5:1]-hexakisadduct 13 with five ethyl malonate addends instead of the five octadecadiynyl malonates was synthesized (FIG. 2). To overcome the general problem of separating the desired hexakisadducts from other adducts formed simultaneously upon the exhaustive cyclopropanation step the sequence of addition steps was reversed in this case. For this purpose the cherry-red C2v-symmetrical [5:0]-pentakisadduct 14^[14] was prepared and used as starting material. The subsequent cyclopropanation reaction with the Boc-protected spacer malonate 8 to complete the C2v-symmetrical octahedral addition pattern afforded the bright-yellow N-Boc-protected [5:1]-hexakisadduct 15 in 63% yield after FC and HPLC purification. After cleavage of the Boc-protecting groups with TFA/CH2Cl2 the bis-amino amphifullerene 16 was obtained in quantitative yield. […]
The characterization of the protected dipeptide hexakisadduct precursors 45 and 46 as well as the free dipeptide hexakisadducts 47 and 48 succeeded by IR-, UV-, ^1H and ^13C NMR and by FAB mass spectroscopy.
The synthesis of a series of mixed amphiphilic hexakisadducts of C60 with an octahedral addition pattern is now described. The new [5:1]-hexakisadduct 3 involving five non-polar long chain malonate addends and one polar addend with two biotin termini is insoluble in water. As a consequence it cannot be used for the investigation of superstructures in aqueous solution. However, it represents an attractive building block for a potential co-surfactant aided assembly to mixed micelles or liposomes. The spacer carrying the biotin termini was designed in a way that it can protrude through a layer of assembled lipid molecules such as DPPC. This in principle makes it available for targeting of micelles and liposomes via avidin mediated binding of label molecules. This is believed to be the first report of the synthesis of amphiphilic [3:3]-hexakisadducts of C60. The key for the very facile access to these aesthetically pleasing molecules is the easy synthesis of the e,e,e-trisadduct 18, which can be prepared in one step from the highly regioselective addition of cyclo-[3]-octylmalonate 17. The remaining three octahedral sites are available for the attachment of three ionic or neutral polar addends. As termini carboxy, amino and peptide moieties were used. This allows for the introduction of a tunable number of positive or negative charges within the polar groups by pH-variation. In a few cases preliminary investigations on the self-assembly using cryo-TEM and PGSE-NMR have been carried out. It has been shown that the solubility and self-assembly properties depend on the number of ionic charges and therefore on the pH value. These are very favourable opportunities for the controlled encapsulation and release of non-polar guest molecules making such amphiphilic fullerenes interesting candidates for drug delivery systems. Extensive investigations on the aggregation and inclusion properties of amphiphilic [3:3]-hexakisadducts of C60 are currently under way.

Entries after “also recorded” stand apart in the source; their conditions may differ.

In the case of “1,2-{Bis-(14-[3-{2-(2-[Aminopropoxy]-ethoxy)-ethoxy}-propyl]carbamoyl-tetradecyloxycarbonyl)-methano}-18,36:22,23:27,45:31,32:55,60-pentakis-{ethyloxycarbonyl)-methano}-1,2:18,36:22,23:27,45:31,32:55,60-dihydro[60]fullerene [compound 16]”, the solubility in methanol result is listed as “enhanced solubility” and the “solubility in organic solvents” value is “appreciable solubility”.
In the case of “1,2-{Bis-(14-[3-{2-(2-[N-Biotinyl-aminopropoxy]-ethoxy)-ethoxy}-propyl]-carbamoyltetradecyloxycarbonyl)-methano}-18,36:22,23:27,45:31,32:55,60-pentakis-{di(10,12-octadecadiynyloxycarbonyl)-methano}-1,2:18,36:22,23:27,45:31,32:55,60-dihydro[60]fullerene [compound 3]”, the “solubility in organic solvents” value was “Acceptable solubility”, the self-assembly in water result is “inappropriate to form self-assemblies in water” and the solubility in water result is on record as “only soluble in the presence of a co-solvent like methanol; also recorded: water-insoluble”.
For the substance “1,2-{Bis-(14-[3-{2-(2-[N-Biotinyl-aminopropoxy]ethoxy)-ethoxy}-propyl]-carbamoyl-tetradecyloxycarbonyl)-methano}-18,36:22,23:27,45:31,32:55,60-pentakis-{ethyloxycarbonyl)-methano}1,2:18,36:22,23:27,45:31,32:55,60-dihydro-[60]fullerene [compound 13]”, the solubility in methanol entry is “enhanced solubility”, the “solubility in organic solvents” value was “appreciable solubility”, the self-assembly in water result is “inappropriate to form self-assemblies in water” and the solubility in water result is reported as “water-insoluble”.

These data come from patent US7507764B2 (Tego BioSciences Corporation, priority 2003, dated 2009).
